For 46 molecules, IC50, EC50 and AC50 results are on record in ChEMBL document CHEMBL1201862, “PubChem BioAssay data set” (2004).

Experiment [1] has as its target T1, Rac GTPase-activating protein 1 (Homo sapiens, UniProt Q9H0H5).
T1 sequence (Q9H0H5 whole entry): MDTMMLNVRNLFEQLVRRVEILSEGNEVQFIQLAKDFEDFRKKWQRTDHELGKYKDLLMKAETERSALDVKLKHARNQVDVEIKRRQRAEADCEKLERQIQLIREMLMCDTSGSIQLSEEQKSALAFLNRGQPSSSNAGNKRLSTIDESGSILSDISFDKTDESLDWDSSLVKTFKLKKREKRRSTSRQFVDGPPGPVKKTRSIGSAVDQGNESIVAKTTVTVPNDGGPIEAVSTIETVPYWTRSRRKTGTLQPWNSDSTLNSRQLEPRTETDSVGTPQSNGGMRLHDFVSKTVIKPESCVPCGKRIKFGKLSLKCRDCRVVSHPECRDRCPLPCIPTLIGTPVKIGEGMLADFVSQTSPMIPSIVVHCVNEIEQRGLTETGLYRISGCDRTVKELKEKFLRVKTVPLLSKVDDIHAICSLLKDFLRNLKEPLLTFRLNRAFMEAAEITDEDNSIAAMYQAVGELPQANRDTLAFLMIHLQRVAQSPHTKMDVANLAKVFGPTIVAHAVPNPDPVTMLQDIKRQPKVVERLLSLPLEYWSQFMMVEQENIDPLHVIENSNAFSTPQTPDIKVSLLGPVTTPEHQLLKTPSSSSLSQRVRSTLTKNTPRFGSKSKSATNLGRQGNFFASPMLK
Put plainly: MgcRacGAP GTPase-activating activity inhibitors, confirmation, biochemical, ADP Hunter fluorescence, primary and confirmatory (AID 624330). Type of experiment: functional.

In experiment [2] the target is T2, Heat shock factor protein 1 (Mus musculus, UniProt P38532).
T2 sequence (P38532 whole entry): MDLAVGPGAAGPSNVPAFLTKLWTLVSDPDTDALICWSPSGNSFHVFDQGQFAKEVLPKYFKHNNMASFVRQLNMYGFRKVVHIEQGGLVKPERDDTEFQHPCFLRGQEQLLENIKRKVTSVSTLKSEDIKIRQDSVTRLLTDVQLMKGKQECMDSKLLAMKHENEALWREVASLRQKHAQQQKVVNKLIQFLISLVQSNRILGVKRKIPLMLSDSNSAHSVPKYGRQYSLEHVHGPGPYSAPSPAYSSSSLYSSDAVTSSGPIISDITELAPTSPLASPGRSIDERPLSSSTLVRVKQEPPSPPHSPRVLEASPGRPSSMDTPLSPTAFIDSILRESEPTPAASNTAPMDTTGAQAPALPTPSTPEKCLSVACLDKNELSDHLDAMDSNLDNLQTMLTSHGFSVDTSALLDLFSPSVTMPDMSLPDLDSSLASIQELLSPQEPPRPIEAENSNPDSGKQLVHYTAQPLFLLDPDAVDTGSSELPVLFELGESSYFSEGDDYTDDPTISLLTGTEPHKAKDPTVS
Put plainly: inhibition of MG132-induced HSE-luciferase signal, confirmation, cell-based, NIH3T3, luminescence, dose retest (AID 2382).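 Note: NIH3T3 fibroblasts with HSF1-driven luciferase reporter stressed by proteasome inhibitor MG132; luminescence from HSF1-driven luciferase expression after 8 hours of MG132 stress.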 Type of experiment: functional.

Experiment [3] is described as follows: inhibitors of intracellular T. cruzi replication, confirmation, NIH3T3 host cells, beta-gal luminescence (AID 2044).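 Note: intracellular parasites grown in NIH/3T3 mouse fibroblasts as host cells; luminescent beta-galactosidase reporter signal from transgenic T. cruzi replicating inside host cells; inhibitors lower the luminescence signal.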 Type of experiment: functional, cell-based.
The nature of experiment [4]: cytotoxicity toward NIH3T3 fibroblasts, dose response, counter-screen, cell-based, ATP luminescence, mouse fibroblasts (AID 2010).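 Note: cells exposed to compound for about 90 hours before reading.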 Type of experiment: functional. (A counterscreen serves to expose hits that act by an unwanted route or on another target.)
Experiment [5] relates to Streptococcus sp. 'group A'. Put plainly: growth inhibition of control SK(-) GAS strain, dose response, counter-screen for streptokinase expression inhibitor project, luminescence, kanamycin, BacTiterGlo, confirmation (AID 1900). Type of experiment: functional, organism-based.
The target in another experiment is T3, Streptokinase A (Streptococcus pyogenes serotype M1, UniProt P10520).
T3 sequence (P10520 whole entry): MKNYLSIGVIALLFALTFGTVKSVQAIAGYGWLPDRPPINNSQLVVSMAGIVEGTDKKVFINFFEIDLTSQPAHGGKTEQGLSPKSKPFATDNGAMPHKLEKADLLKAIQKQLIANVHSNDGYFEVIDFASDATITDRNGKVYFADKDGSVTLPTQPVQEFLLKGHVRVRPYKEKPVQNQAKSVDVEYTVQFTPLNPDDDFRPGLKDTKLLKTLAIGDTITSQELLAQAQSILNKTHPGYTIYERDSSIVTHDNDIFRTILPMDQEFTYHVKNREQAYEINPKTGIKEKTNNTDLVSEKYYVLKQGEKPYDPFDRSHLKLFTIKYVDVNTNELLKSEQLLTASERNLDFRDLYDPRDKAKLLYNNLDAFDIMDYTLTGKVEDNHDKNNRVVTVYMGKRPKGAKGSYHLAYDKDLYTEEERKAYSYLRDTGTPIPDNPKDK
Put plainly: S. pyogenes streptokinase expression inhibitors, potency, dose response, plasminogen activation absorbance, OD405 (AID 1914).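 Note: secreted streptokinase activity via plasminogen activation per viability signal from cell pellet.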 Type of experiment: functional, Streptococcus pyogenes M1 GAS.

Another experiment deals with Streptococcus. Put plainly: Group A Streptococcus viability loss, dose response, counter-screen for streptokinase expression inhibitor project, luminescence, BacTiterGlo (AID 1915).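 Note: potency for reduction of bacterial viability or growth.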 Type of experiment: functional, organism-based.
The next experiment concerns the target Cytochrome P450 2C9 (Homo sapiens, UniProt P11712).

Molecules are shown by their SMILES. Calls of active or inactive are those of the source. Cut-off read from the data, not from the text of the source, for most assays here: actives have a measured EC50 and inactives only a lower limit.

Chain of Cytochrome P450 2C9 (P11712 whole entry): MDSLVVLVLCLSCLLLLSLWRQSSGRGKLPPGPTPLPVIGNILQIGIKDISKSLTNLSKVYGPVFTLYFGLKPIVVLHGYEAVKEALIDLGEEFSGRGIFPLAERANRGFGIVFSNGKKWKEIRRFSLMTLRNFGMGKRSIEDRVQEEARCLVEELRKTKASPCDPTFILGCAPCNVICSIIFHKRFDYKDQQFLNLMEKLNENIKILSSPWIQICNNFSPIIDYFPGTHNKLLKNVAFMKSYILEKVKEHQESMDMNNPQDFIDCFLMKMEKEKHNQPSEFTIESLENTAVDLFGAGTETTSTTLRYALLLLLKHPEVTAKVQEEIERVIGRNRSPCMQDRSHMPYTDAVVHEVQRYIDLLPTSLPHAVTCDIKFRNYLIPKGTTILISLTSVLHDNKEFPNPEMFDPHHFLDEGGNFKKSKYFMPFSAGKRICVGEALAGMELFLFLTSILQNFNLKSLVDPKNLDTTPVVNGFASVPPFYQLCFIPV

Usually IC50 stands for the concentration needed to halve the response being measured. Turning to `Cc1ccc(CN2CCN(Cc3ccco3)CC2)cc1`, the IC50 in experiment [1] is 72.7 µM (active).
Broadly, the EC50 is the concentration that produces a half-maximal response. `CCOC(=O)N1CCC(NC(=O)CN2C(=O)CSc3nc(C)cc(C)c32)CC1`: the EC50 in experiment [2] is on record as > 195 µM (not active).
As for `CCn1c2ccccc2n2c(=O)c(=O)n(CC(=O)Nc3ccc(C(C)C)cc3)nc12`, in experiment [2], the EC50 was > 195 µM (not active).
Turning to `COc1ccc(C2C(Oc3ccccc3)C(=O)N2c2cc(C)ccc2C)cc1OC` (stereo not given), the EC50 in experiment [3] was 2.24 µM (active); in experiment [4] it was > 60 µM (not active).
In the case of `O=C(C1CCCN(S(=O)(=O)Cc2ccccc2)C1)N1CCc2ccccc21` (stereo not given), the concentration for a half-maximal effect (EC50) in experiment [2] is on record as > 195 µM (not active).
With `COC(=O)[C@@]12CCCCN1[C@H](c1ccc(-c3cccc(Cl)c3)c(OC)c1)[C@@H]1C(=O)N(C)C(=O)[C@@H]12`, the values for the EC50 in experiment [3] and in experiment [4] were 2.48 µM (active) and > 60 µM (not active), respectively.
Take `CCOC(=O)c1ccc(Cl)c(NC(=O)c2cccnc2)c1`: the EC50 in experiment [2] is 30.8 µM (active).
Still for that read-out and setting: the same measure for `Fc1ccc(-c2cc(-c3ccccc3)nc(-n3cccn3)n2)cc1`: > 195 µM (not active).
On to `Clc1cc(Cl)c(OCCCCn2cncn2)c(Cl)c1`, for which the 50% inhibitory concentration (IC50) in experiment [1] is 156 µM (active).
As for `Cc1ccsc1/C=C(\C(=O)c1ccc(OC(C)C)cc1)c1nc2ccccc2o1`, the EC50 in experiment [3] is 1.69 µM (active); in experiment [4], > 60 µM (inconclusive).
On to `COc1ccc(NC(=O)C(NC(=O)CNC(C)=O)c2ccc(C)cc2)cc1` (stereo not given), for which, in experiment [2], the EC50 is given as > 195 µM (not active).
In the case of `O=C1c2cccc3c(Nc4ccccc4Cl)c([N+](=O)[O-])cc(c23)C(=O)N1CCO`, the EC50 in experiment [3] is 0.519 µM (active); in experiment [4], > 60 µM (not active).
With `Nc1nc(CSc2ncn(-c3ccccc3)n2)cs1`, the EC50 in experiment [2] is > 195 µM (not active).
Regarding `Cc1ccc(/C=C(\NC(=O)c2ccccc2)C(=O)N2CCCC2C(=O)O)cc1` (stereo not given), the EC50 in experiment [2] was > 195 µM (not active).
Consider `COc1ccc(S(=O)(=O)N2CCN=C2SCc2cccc(C)c2)cc1`, for which the EC50 in experiment [5] was > 150 µM (not active); at Streptokinase A, 46.6 µM (inconclusive); with Streptococcus, > 150 µM (not active).
As to `CC1CC(C)CN(c2ccc(C(=O)NCc3ccc4c(c3)OCO4)cc2[N+](=O)[O-])C1` (stereo not given), the results for the EC50 in experiment [3] and in experiment [4] were 1.1 µM (active) and > 60 µM (not active), respectively.
One may read the AC50 as the concentration at which the activity in the assay is half-maximal. With `NC(=O)CSc1nc2sc(-c3ccccc3)cc2c(=O)n1N`, the AC50 on Cytochrome P450 2C9 was 3.55 µM (inconclusive).
As to `c1ccn2c(SCc3ccc4c(c3)OCO4)nnc2c1`, in experiment [2], the EC50 was > 195 µM (not active).
The same measure, in the same setting: the same measure for `O=C(Nc1ccccc1)NC1CC2CCC(C1)N2` (stereo not given): > 195 µM (not active).
Consider `COCCCNCCOc1ccc(C(C)(C)c2ccccc2)cc1`, for which the EC50 in experiment [3] is 0.611 µM (active); in experiment [4], 7.83 µM (active).
Consider `COc1ccc(Oc2nc(-c3ccccn3)ncc2OC)cc1`, for which the EC50 (in experiment [5]; at Streptokinase A; with Streptococcus) was > 150 µM (not active) each time.
For `CSc1ccc(CNc2ccc(C)c(C)c2)cc1`, the AC50 at Cytochrome P450 2C9 is 14.1 µM (inconclusive).
Turning to `COC(=O)CCNC(=O)c1ccc2nc(Cc3ccc(OC)cc3)oc2c1`, the EC50 in experiment [2] is recorded as > 195 µM (not active).
As for `COc1cccc(CN2CCC(n3nccc3NC(=O)CCCc3ccccc3)CC2)c1O`, in experiment [2], the EC50 is > 195 µM (not active).
Take `CC(C)C1Cc2c(sc3[nH]c(=S)n(Cc4ccccc4)c(=O)c23)CO1` (stereo not given): the half-maximal effective concentration (EC50) was 2.15 µM (active) in experiment [5], > 150 µM (not active) at Streptokinase A and 33.4 µM (active) in the experiment with Streptococcus.
As to `CCc1ccc(OCC(=O)NC(N=C(S)Nc2ccccc2C)C(Cl)(Cl)Cl)cc1` (stereo not given), the EC50 was 3.62 µM (active) in experiment [3] and > 60 µM (not active) in experiment [4].
For `CC(OC(=O)c1ccc(NC(=O)CC#N)cc1)C(=O)NC(=O)NC1CCCCC1` (stereo not given), the values for the 50% effective concentration (EC50) (in experiment [5]; on Streptokinase A; with Streptococcus) were 57.5 µM (active), > 150 µM (not active) and > 150 µM (not active), respectively.
Consider `Cc1ccc(/C=C/C2=NN(Cc3ccc(Cl)c(Cl)c3)C(=O)CC2)cc1`, for which the EC50 in experiment [5] was 17.2 µM (active); on Streptokinase A, 24.3 µM (active); with Streptococcus it was 50.6 µM (active).
On to `Cc1ccc(CNC(=O)CSc2nc3c(sc4ccccc43)c(=O)n2CCCN2CCCC2)cc1`, for which the results for the EC50 in experiment [3] and in experiment [4] were 1.5 µM (active) and 32.5 µM (active), respectively.
For `Cc1ccccc1CN1CCN(C(=O)CC(C)C)CC1`, the EC50 in experiment [2] is reported as > 195 µM (not active).
Turning to `COc1ccc(C(=O)NCC(=O)OCCCOC(=O)CNC(=O)c2ccc(OC)c(OC)c2)cc1OC`, the EC50 (in experiment [5]; at Streptokinase A; in the experiment with Streptococcus) was > 150 µM (not active) each time.
Regarding `CC(C)Cc1ccc(CN2CCCC(NC(=O)c3cnc4ccccn4c3=O)C2)cc1` (stereo not given), the EC50 was 0.131 µM (active) in experiment [3] and 26.7 µM (active) in experiment [4].
With `COc1ccc(NC2CCCN(C(=O)c3cccc(N(C)C)c3)C2)cc1` (stereo not given), in experiment [1], the IC50 is 84.9 µM (active).
For `O=C(Nc1ccc(N2CCCC2)c(Cl)c1)c1ccc2c(c1)OCCO2`, the concentration giving a half-maximal response (EC50) in experiment [3] is 0.555 µM (active); in experiment [4], > 30 µM (not active).
With `Cc1cc(OCC(=O)Nc2sc3c(c2C#N)CC(C)(C)NC3(C)C)c(C(C)C)cc1Cl`, the EC50 in experiment [2] is > 195 µM (not active).
On the same count and under the same terms, then `NNC(=O)c1nn(-c2ccc(Cl)cc2)cc1O`, with 27 µM (active); and `O=C(Nc1ccc2[nH]c(-c3cccnc3)nc2c1)c1ccccc1F`, with > 195 µM (not active).
For the molecule `COc1cc(/C=C/CN2CCC(Oc3ccc(C(=O)N4CCCC4)cc3)CC2)ccc1O`, the IC50 in experiment [1] is 81.2 µM (active).
The same measure, in the same setting: then `CCc1ccc(NC(=O)CNCc2ccc(OC)c(OC)c2)cc1`, with 131 µM (active).
Consider `Cc1ccc(NC(=S)N=Nc2c(O)[nH]c3ccccc23)cc1`, for which the EC50 in experiment [5] was 1.22 µM (active); at Streptokinase A, > 150 µM (not active); in experiment [3], 2.17 µM (active); in experiment [4] it was 4.31 µM (active); in the experiment on Streptococcus, 6.61 µM (active).
As for `COc1cc(/C=C/C(=O)OCC(=O)c2ccc[nH]2)ccc1O`, in experiment [1], the IC50 was 32.2 µM (active).
Consider `COc1cc(/C=N\NC(=O)c2ccc(Cn3cc(Br)c([N+](=O)[O-])n3)o2)cc(OC)c1O`, for which the EC50 in experiment [5] was 2.67 µM (active); with Streptococcus, 4.9 µM (active).
With `Cc1cc(C)c(/N=C2\SCC(=O)N2Cc2ccco2)c(C)c1`, the EC50 in experiment [2] is > 195 µM (not active).
For the molecule `CCOC(=O)C1=C(Nc2ccccc2)CC(C)(O)C(C(=O)OCC)C1c1ccccc1` (stereo not given), the EC50 in experiment [3] and in experiment [4] was > 60 µM (not active) each time.
`CCCCNC(=O)C(=O)N/N=C/c1ccc(C(=O)OC)cc1`: the EC50 in experiment [2] is on record as > 195 µM (not active).
Take `C[C@H]1COc2c(C3(N)CC3)c(F)cc3c(=O)c(C(=O)O)cn1c23` [PAZUFLOXACIN]: the EC50 in experiment [5] was 7.22 µM (active); with Streptococcus, 6.74 µM (active).
